Measured values from patent US8841452B1, “Process for recovery of nalmefene hydrochloride” (H. Lundbeck A/S, priority 2011, dated 2014).
Where a name gives a salt, the structure may show the parent alone.

Key:
[1] = solubility in aqueous medium; assay type: physicochemical; details: compared to naltrexone itself
Description: Since only compounds containing a carbonyl moiety can react with the bisulfite anion nalmefene cannot undergo to such reaction. The bisulfite adduct of naltrexone is more soluble than naltrexone itself thus permitting the removal of this impurity.

[2] = crystalline form; improves API stability under storage and formulation conditions; cited from earlier work
[3] = compared to naltrexone; cited from earlier work
[4] = compared to naltrexone; cited from earlier work; remark: listed apart in the source
[5] = compared to naltrexone; cited from earlier work; remark: listed apart in the source
[6] = hydrochloride salt, doses of 10 to 40 mg taken when the patient experiences a craving for alcohol; cited from earlier work

O=S(=O)(O)C1(O)CC[C@@]2(O)[C@H]3Cc4ccc(O)c5c4[C@@]2(CCN3CC2CC2)[C@H]1O5 (stereo partly drawn) [bisulfite adduct of naltrexone]
solubility [1]: more soluble

C=C1CC[C@@]2(O)[C@H]3Cc4ccc(O)c5c4[C@@]2(CCN3CC2CC2)[C@H]1O5 [nalmefene hydrochloride dihydrate]
hygroscopic properties [2]: non-hygroscopic

C=C1CC[C@@]2(O)[C@H]3Cc4ccc(O)c5c4[C@@]2(CCN3CC2CC2)[C@H]1O5 [nalmefene, 17-(cyclopropylmethyl)-4,5-alpha-epoxy-6-methylenemorphinan-3,14-diol hydrochloride]
dose-dependent liver toxicity [3]: absence | half-life [4]: longer | oral bioavailability [5]: higher | effect in the management of alcohol dependency [6]: good effect
